The results in this text go back to patent US20130196989A1, “COMPOSITIONS AND METHODS FOR INDUCING CELL DEDIFFERENTIATION” (The Scripps Research Institute, priority 2003, published 2013).

Data set [1] relates to C2C12 myoblast cells. The protocol: Mammalian cells (e.g., C2C12 myoblast cells) are treated with a suitable amount of a test compound (e.g., 5 μM reversine) in DMEM supplemented with 10% FBS for four days. The compound is then removed and medium is changed to ODM every two days. After seven days following induction of osteogenesis, the cells are washed with PBS (200 μL, 3 times) and fixed with 10% formalin solution (Sigma) for 20 min. The fixed cells are then washed with PBS (200 μL, 3 times) and stained with the Alkaline Phosphatase Staining Kit 86R (Sigma) as directed by the manufacturer. Images are taken on a Nikon Eclipse TE2000 microscope at 200 fold magnification.
(§1) After four days of treatment with reversine, the compound was removed and cells were then grown in osteogenic differentiation medium (ODM) or adipogenic differentiation medium (ADM).

Data set [2] deals with C2C12 myoblast cells. The protocol: Mammalian cells (e.g., C2C12 myoblast cells) were treated with a suitable amount of a test compound (e.g., 5 μM reversine) in DMEM supplemented with 10% FBS for four days. The compound was then removed and medium was changed to adipogenic differentiation medium (ADM) containing 0.5 mM 3-isobutyl-1-methylxanthine, 2.5 μg/ml insulin, and 0.5 μM dexamethasone. Typically, the ADM is replaced every two days. After seven days following induction of adipogenesis, the cells are washed with PBS (200 μL, 3 times) and fixed with 10% formalin solution (Sigma) for 10 min. The fixed cells are then washed with PBS (200 μL, 3 times) and stained with the 0.7% Oil Red O (Sigma) as directed by the manufacturer. Images are taken on a Nikon Eclipse TE2000 microscope at 200 fold magnification.
as §1
This is another data set of the same source.

Data set [3] relates to C2C12 cells. The following applies: single-cell colonies, 6 days of treatment, portions cultured in ODM and ADM. The protocol: Clonal analysis is used to verify that reversine can induce dedifferentiation at the single cell level. C2C12 cells were cultured from a single cell and treated with reversine. After 6 days of treatment, each colony was divided into two portions. One portion was cultured in ODM and another portion was cultured in ADM. The cells were then analyzed using the staining assays described in Example 1.

The test system of data set [4] is C2C12 myoblasts cells. The experiment in a line: Cell death at effective concentration. The protocol: as §1
The test system of data set [5] is C2C12 myoblast cells. The following applies: 5 μM compound for four days, then seven days in osteogenic inducing medium; BBTP substrate.
Method: C2C12 cells (ATCC CRL-1772) are cultured in DMEM (Gibco) supplemented with 10% fetal bovine serum (HyClone) at 37° C. in 5% CO2.
For the small molecule screen, proliferating C2C12 cells are plated into black 384-well tissue culture plates (Greiner) at a density of 1,000 cells/well in DMEM with 10% FBS. […] After the cells are treated with test compounds for four days, the test compound is removed and the cell culture medium is changed to osteogenic differentiation medium (ODM) containing 50 μg/ml ascorbic acid 2-phosphate, 0.1 μM dexamethasone and 10 mM β-glycerophosphate. Cell culture medium is typically changed every two days. After seven additional days of culture in ODM, the ODM is removed and cells are lysed by incubation in 10 μL passive lysis buffer (Promega) for 10 min, followed by addition of 10 μL alkaline phosphatase substrate solution (AttoPhos, Promega). After a 15 minute room temperature incubation, fluorescence intensity is read on an Acquest (Molecular Devices) as directed by the manufacturer. […]
The subject of data set [6] is C2C12 myoblast cells. Conditions: 5 μM reversine, day four of compound treatment.

The structures appear in SMILES notation.

As to `c1nc2nc(Nc3ccc(N4CCOCC4)cc3)nc(NC3CCCCC3)c2[nH]1` [Compound A, 2-(4-Morpholinoanilino)-6-cyclohexylamino-purine], the “cells stained positive for ALP” value in data set [1] (four days of treatment, compound removed, ODM conditions, end of day seven) was 35%. Besides, the “osteogenesis activity of compound alone” value in data set [1] (in the absence of ODM) is listed as “no osteogenesis activity”. The “cells with fat cell morphology, stained positive with Oil Red O” value in data set [2] (four days of treatment, compound removed, ADM condition, end of day seven) is listed as 40%. Moreover, the “adipogenesis activity of compound alone” value in data set [2] (in the absence of ADM) is reported as “no adipogenesis activity”. The “colonies determined to be multipotent” value in data set [3] is recorded as 56 of 97. In addition, the cell death entry in data set [4] is on record as “no significant cell death”. Further, the effective concentration in data set [4] (C2C12 dedifferentiation) lay within 0.5 to 5 µM. For the same compound, in data set [5], the “level of ALP activity relative to the DMSO control treatment” value was 7 fold. Besides, in data set [6], the “myogenic specific markers such as MyoD and myosin” value is reported as “began to disappear”; the myotube formation result is “completely inhibited”.
